{"source": "patent US20240415920A1", "about": "“PEPTIDE HAVING ACTIVITY OF PREVENTING HAIR LOSS OR PROMOTING HAIR GROWTH, AND USE THEREOF” (CAREGEN CO., LTD., priority 2021, published 2024)", "type_in_all_cases": "cell-based, human", "key": {"HHFDPC": {"system": "HHFDPC", "experiment": "Proliferation of dermal papilla cells (MTT, absorbance at 540 nm)", "settings": "72 hours, FIG. 1", "method": "While culturing human hair follicle dermal dermal papilla cells (HHFDPC), the absorbance was measured after treatment with the peptide of the present invention to confirm whether there was an effect of promoting the proliferation of the HHFDPC dermal papilla cells.\nSpecifically, HHFDPC (Sciencell, USA) was seeded at 4λ10^3 cells/well in a 96-well culture plate, cultured in MSC complete medium stem (mesenchymal cell complete media, Sciencell, USA) for 24 hours, and then the medium was replaced with serum free MSC complete medium and cultured for another 24 hours. Then, the HHFDPC was treated with the peptide from Preparation Example consisting of amino acid sequence of SEQ ID NO: 1 at concentrations of 10 nM, 100 nM, and 1 μM, respectively, and cultured at 37° C. for 72 hours. As a positive control, minoxidil was treated at a concentration of 1 μM, and as a negative control, HHFDPC without any treatment was used. Then, 10 μl of 5 mg/mL MTT solution was added and cultured in a 37° C. CO2 incubator for 4 hours to stain the cells. After removing the medium, the cells were treated with 100 μl of DMSO and shaken for 10 minutes, and the number of HHFDPC cells was confirmed by measuring absorbance at a wavelength of 540 nm using a spectrophotometer."}, "p-AKT": {"system": "p-AKT", "experiment": "Western blotting of phosphorylated AKT in HHFDPC", "settings": "peptide 10 nM, 100 nM, 1 μM, 24 hours, FIG. 2", "excerpt": "(§1) In the HHFDPC treated with the peptide of the present invention, changes in related factors that affect cell proliferation or differentiation were confirmed to determine whether the peptide of the present invention could promote proliferation and differentiation of HHFDPC by increasing them.\n(§2) First, phosphorylated forms of AKT and ERK, which act as signaling molecules related to the proliferation of HHFDPC, were confirmed through Western blotting. Specifically, HHFDPC as in [Experiment Example 1-1] above was seeded at 4λ10^5 cells/well in a 6-well culture plate, cultured in MSC complete medium (mesenchymal stem cell complete media) for 24 hours, and then the medium was replaced with serum free MSC complete medium and cultured for another 24 hours. Then, the HHFDPC was treated with the peptide of SEQ ID NO: 1 prepared in the Preparation Example at concentrations of 10 nM, 100 nM, and 1 μM, respectively, and cultured at 37° C. for 24 hours. As a positive control, minoxidil was treated at a concentration of 1 μM, and as a negative control, HHFDPC without any treatment was used. Then, Western blotting was performed to detect phosphorylated AKT and phosphorylated ERK. […] After washing again with 0.1% PBS-T (0.1% Tween-20 in PBS) three times for 15 minutes each, p-AKT and p-ERK were detected by treatment with ECL solution (GE Healthcare, USA)."}, "p-ERK": {"system": "p-ERK", "experiment": "Western blotting of phosphorylated ERK in HHFDPC", "settings": "peptide 10 nM, 100 nM, 1 μM, 24 hours, FIG. 2", "excerpt": "as §1, §2"}, "β-catenin": {"system": "β-catenin", "experiment": "Western blotting of β-catenin moved into the nucleus of HHFDPC", "settings": "peptide 10 nM, 100 nM, 1 μM, 24 hours, FIG. 3", "method": "In addition, in addition to p-AKT and p-ERK, in order to confirm the activation of β-catenin, which is known to affect cell proliferation and differentiation, whether β-catenin moved into the nucleus was confirmed through Western blotting. Specifically, the HHFDPC as in [Experiment Example 1-1] was seeded in a 6-well culture plate at an amount of 4λ10^5 cells/well, cultured in MSC complete medium (mesenchymal stem cell complete media) for 24 hours. Next, the medium was replaced with serum free MSC complete medium and cultured again for 24 hours. Then, the HHFDPC was treated with the peptide of SEQ ID NO: 1 prepared in the Preparation Example at concentrations of 10 nM, 100 nM, and 1 μM, respectively, and cultured at 37° C. for 24 hours. As a positive control, minoxidil was treated at a concentration of 1 μM, and as a negative control, HHFDPC without any treatment was used. After washing with PBS, proteins in the nucleus were isolated using a nuclear protein extraction kit (Thermo scientific, USA). After electrophoresis using a 10% SDS-PAGE gel, it was transferred to a PVDF membrane and blocked using 5% skim milk at room temperature for 30 minutes. […] After washing again with 0.1% PBS-T (0.1% Tween-20 in PBS) three times for 15 minutes each, β-catenin was detected by treatment with ECL solution (GE Healthcare, USA)."}, "LEF-1": {"system": "LEF-1", "experiment": "RT-PCR of LEF-1 expression in HHFDPC", "settings": "peptide 10 nM, 100 nM, 1 μM, 24 hours, FIG. 4", "method": "(§3) Furthermore, in order to determine whether the β-catenin moves to the nucleus and is s activated to affect cell proliferation and differentiation, whether the expression of LEF-1 and cyclin D1 (cyclin D1), which act as downstream factors, increases with β-catenin activation was confirmed through RT-PCR. Specifically, in the same manner as the previous Western blotting experiment, HHFDPC cells were cultured, treated with the peptides of the Preparation Example of the present invention at concentrations of 10 nM, 100 nM, and 1 μM, respectively, and cultured at 37° C. for 24 hours. After washing the cells with PBS, RNA was isolated by treating them with 300 […] of easy blue (intron, Korea). Then, cDNA was synthesized using a cDNA synthesis kit (enzynomics, Korea) by quantifying it with nano drop, and PCR was performed using primers for LEF-1 and cyclin D1 (base sequences of the primers are listed in Table 2) and PCR premix (enzynomics, Korea). Electrophoresis was performed on a 1.5% agarose gel, and then the mRNA of LEF-1 and cyclin D1 was detected using a band analysis system (Bio-Rad gel image system)."}, "cyclin D1": {"system": "cyclin D1", "experiment": "RT-PCR of cyclin D1 expression in HHFDPC", "settings": "peptide 10 nM, 100 nM, 1 μM, 24 hours, FIG. 4", "method": "as §3"}, "DKK-1 protein": {"system": "DKK-1 protein", "experiment": "Western blotting of DKK-1 protein in DHT-treated HHFDPC", "settings": "HHFDPC with DHT 100 nM, peptide 10 nM, 1 μM, 24 hours, FIG. 5", "method": "DKK-1 protein (dickkopf-related protein 1) is a hair loss-related protein known to be highly expressed in individuals with hair loss, especially male pattern hair loss, and its expression is known to be promoted by hormones such as DHT (Dihydrotestosterone). Accordingly, the expression of DKK-1 protein was induced by treating HHFDPC cells with DHT together with the peptide according to the Preparation Example of the present invention, and then the expression level of DKK-1 was measured through Western blotting to determine whether there was an effect of suppressing the expression of DKK-1 protein.\nSpecifically, HHFDPC as in [Experiment Example 1-1] was seeded in a 6-well culture plate at 4×10^5 cells/well and then cultured in MSC complete medium (mesenchymal stem cell complete media) for 24 hours. Next, the medium was replaced with serum free MSC complete medium and cultured again for 24 hours. In addition, the HHFDPC was treated with the peptide of SEQ ID NO: 1 prepared in Preparation Example at concentrations of 10 nM, 100 nM, and 1 μM, respectively, and at this time, DHT, an expression inducer of DKK-1 protein, was simultaneously treated at a concentration of 100 nM and then cultured at 37° C. for 24 hours. […] After washing again with 0.1% PBS-T (0.1% Tween-20 in PBS) three times for 15 minutes each, DKK-1 protein was detected by treatment with ECL solution (GE Healthcare, USA)."}, "Ha3-II": {"system": "Ha3-II", "experiment": "RT-PCR of Ha3-II expression in HHORSC", "settings": "peptide 10 nM, 100 nM, 1 μM, 72 hours, FIG. 6", "method": "(§4) Using the peptide of the present invention consisting of the amino acid sequence of SEQ ID NO: 1 prepared according to Preparation Example above, it was confirmed whether it promotes the activity of outer root sheath cells, a type of cell that forms hair follicles.\n(§5) Specifically, HHORSC (human hair outer root sheath cell, Sciencell, USA) was seeded in a 6-well culture plate at 4×10^5 cells/well and then cultured in MSC complete medium (mesenchymal stem cell complete media) for 24 hours. Next, the medium was replaced with serum free MSC complete medium and cultured again for 24 hours. Then, the HHORSC was treated with the peptide of Preparation Example consisting of amino acid sequence of SEQ ID NO: 1 at concentrations of 10 nM, 100 nM, and 1 μM, respectively, and cultured at 37° C. for 72 hours. […] Then, CDNA was synthesized using a cDNA synthesis kit (enzynomics, Korea) by quantification using nano drop, and PCR was performed using primers for Ha3-II, Keratin 5, Keratin 14, and Keratin 19 (the base sequences of each primer are shown in Table 3 below) and PCR premix (enzynomics, Korea). Electrophoresis was performed on a 1.5% agarose gel, and the mRNAs of Ha3-II, Keratin 5, Keratin 14, and Keratin 19 were detected using a band analysis system (Bio-Rad gel image system)."}, "Keratin 5": {"system": "Keratin 5", "experiment": "RT-PCR of Keratin 5 expression in HHORSC", "settings": "peptide 10 nM, 100 nM, 1 μM, 72 hours, FIG. 6", "method": "as §4, §5"}, "Keratin 14": {"system": "Keratin 14", "experiment": "RT-PCR of Keratin 14 expression in HHORSC", "settings": "peptide 10 nM, 100 nM, 1 μM, 72 hours, FIG. 6", "method": "as §4, §5"}, "Keratin 19": {"system": "Keratin 19", "experiment": "RT-PCR of Keratin 19 expression in HHORSC", "settings": "peptide 10 nM, 100 nM, 1 μM, 72 hours, FIG. 6", "method": "as §4, §5"}, "MSX2": {"system": "MSX2", "experiment": "RT-PCR of MSX2 expression in HHGMC", "settings": "peptide 10 nM, 100 nM, 1 μM, 72 hours, FIG. 7", "method": "as §4, with “promoted the expression of transcription factors related to” for “promotes”, “germinal matrix” for “outer root sheath”, “hair.” for “hair follicles.”\nSpecifically, HHGMC (human hair germinal matrix cell, Sciencell, USA) was seeded in a 6-well culture plate at 4×10^5 cells/well and then cultured in MSC complete medium (mesenchymal stem cell complete media) for 24 hours. Next, the medium was replaced with serum free MSC complete medium and cultured again for 24 hours. Then, the HHGMC was treated with the peptide of SEQ ID NO: 1 prepared in the Preparation Example at concentrations of 10 nM, 100 nM, and 1 μM, respectively, and cultured at 37° C. for 72 hours. As a positive control, EGF was treated at a concentration of 50 nM, and as a negative control, HHGMC without any treatment was used. […] Next, cDNA was synthesized using a cDNA synthesis kit (enzynomics, Korea) by quantification using nano drop, and PCR was performed using primers for MSX2 consisting of base sequences according to Table 4 below and PCR premix (enzynomics, Korea). Electrophoresis was performed on a 1.5% agarose gel, and MSX2 mRNA was detected using a band analysis system (Bio-Rad gel image system)."}}}
{"sequence": "GCGLFVAAC [peptide of the present invention]", "values": [{"measurement": "absorbance (cell proliferation) compared to the untreated control group", "setting": "HHFDPC; peptide 10 nM, 100 nM, 1 μM", "value": "the absorbance was measured to be higher"}, {"measurement": "proliferation promotion effect compared to the positive control group (minoxidil 1 μM)", "setting": "HHFDPC; peptide 1 μM", "value": "showed a better proliferation promotion effect than the positive control group"}, {"measurement": "phosphorylation of AKT (p-AKT) compared to the control group not treated with the peptide", "setting": "p-AKT", "value": "phosphorylation was found to be increased"}, {"measurement": "phosphorylation of ERK (p-ERK) compared to the control group not treated with the peptide", "setting": "p-ERK", "value": "phosphorylation was found to be increased"}, {"measurement": "β-catenin migration to the nucleus compared to the control group not treated with the peptide", "setting": "β-catenin; HHFDPC nuclear protein, Western blotting", "value": "migration due to activation of β-catenin increased"}, {"measurement": "concentration dependence of β-catenin activation", "setting": "β-catenin; HHFDPC", "value": "further promoted depending on the concentration"}, {"measurement": "LEF-1 mRNA amount compared to the control group without any treatment", "setting": "LEF-1", "value": "the amount of mRNA increased further"}, {"measurement": "cyclin D1 mRNA amount compared to the control group without any treatment", "setting": "cyclin D1", "value": "the amount of mRNA increased further"}, {"measurement": "concentration dependence of the DKK-1 expression level", "setting": "DKK-1 protein", "value": "decreased depending on the concentration"}, {"measurement": "amount of DKK-1 protein compared to the negative control group (DHT only)", "setting": "DKK-1 protein; Western blotting", "value": "found to be reduced"}, {"measurement": "Ha3-II mRNA amount compared to the control group without treatment", "setting": "Ha3-II", "value": "the amount of mRNA increased further"}, {"measurement": "Keratin 5 mRNA amount compared to the control group without treatment", "setting": "Keratin 5", "value": "the amount of mRNA increased further"}, {"measurement": "Keratin 14 mRNA amount compared to the control group without treatment", "setting": "Keratin 14", "value": "the amount of mRNA increased further"}, {"measurement": "Keratin 19 mRNA amount compared to the control group without treatment", "setting": "Keratin 19", "value": "the amount of mRNA increased further"}, {"measurement": "MSX2 mRNA amount compared to the untreated control group", "setting": "MSX2", "value": "the amount of mRNA increased further"}]}
